Data published in patent publication US11541065B2, “Compositions and methods for treating brain injury” (UNM RAINFOREST INNOVATIONS, priority 2018, dated 2023).

Assays:
PGE2 = PGE2 release from rat neuronal cultures (enzyme immunoassay / ELISA of culture media); type: cell-based; details: rat neurons, L-homocysteine 50 μM four hours, with DL-AP5 200 μM, MK801 10 μM, NVP-AAM077 30 nM, Ro 25-6981 1 μM, PD98059 15 μM, SB203580 5 μM, Bengamide B 500 nM or CAY10404 100 nM
Experimental: (§1) Neuron cultures were treated with or without L-homocysteine in the presence or absence of pharmacological inhibitors for the time period specified in each experiment. The medium was collected from each experimental plate and centrifuged at 1000 rpm for five minutes to remove cellular debris. Equal amounts (100 μl) of the supernatant from each sample were used to determine the amount of PGE2 using the PGE2 enzyme immunoassay kit according to the manufacturer's instructions. For measurement of cPLA2 activity, the neuronal cells from the above treated conditions were harvested in ice-cold Tris-buffered saline (pH7.4) containing sodium pyrophosphate as phosphatase inhibitor, sonicated three times with five-second bursts and two minutes on ice between intervals. The lysed cell suspensions were centrifuged at 10,000 rpm for 10 minutes and the supernatant removed. Equal amounts of protein from the supernatant (assessed using BCA protein estimation kit) were estimated for activity of cPLA2 using cPLA2 activity assay kit according to the manufacturer's protocol.
For measurement of PGE2 levels and MCP-1 levels released from neurons, culture medium was collected from each experimental plate and centrifuged at 1000 rpm for five minutes to remove cellular debris. Equal volume (100 μl) of the supernatant from each sample was used to determine PGE2 level using the PGE2 ELISA kit according to the manufacturer's instructions.

COX2 = COX2 protein level in rat neuronal cultures (immunoblot); type: cell-based; details: rat neurons, L-homocysteine 50 μM four hours, with MK801 10 μM, NVP-AAM077 30 nM, Ro 25-6981 1 μM, PD98059 15 μM, SB203580 5 μM or Bengamide B 500 nM
Experimental: (§2) Equal protein from total cell lysates obtained from rat and mice neuronal cultures were resolved in 7.5% SDS-PAGE, and subjected to immunoblotting procedure as described earlier (Poddar and Paul, 2009, J Neurochem 110:1095-1106). Blots were analyzed with antibodies as described in each experiment. All primary antibodies (anti-COX2, anti-B-tubulin) and secondary-horse radish peroxidase conjugated antibody concentrations were used according to recommendations provided by the manufacturer. Signals from immune complexes in the blots were developed using West Pico supersignal chemiluminescence reagents and then captured on X-ray films. Densitometric analysis of the images was performed using the Image J software.
Rat and mice neuronal cultures were washed with PBS (pH 7.4), containing sodium pyrophosphate and sodium vanadate as phosphatase inhibitors, and harvested in SDS sample buffer (Laemmli, 1970, Nature 227:680-685). Equal protein from total cell lysates, estimated using BCA kit, was resolved by SDS-PAGE (7.5%) followed by western blotting on PVDF membranes. Immunoblot analysis was performed by first blocking with 5% non-fat dry milk for 1 h at room temperature followed by incubation with either COX2 immunoblot analysis (Poddar and Paul, 2009, J Neurochem 110:1095-1106) as described in each experiment. All primary antibodies and horseradish peroxidase conjugated secondary antibodies were used according to manufacturer's recommendations. Signals from immune complexes in the blots were developed using West Pico supersignal chemiluminescence reagents and then captured on X-ray films. Densitometric analysis of the images was performed using the NIH Image J software.

cPLA2 = cPLA2 activity in rat neuronal lysates (enzymatic assay); type: cell-based; details: rat neurons, L-homocysteine 50 μM four hours, with MK801 10 μM, NVP-AAM077 30 nM, Ro 25-6981 1 μM, PD98059 15 μM or SB203580 5 μM
Experimental: as §1
For measurement of cPLA2 activity and MCP-1 levels in cell lysates, neuronal lysates were prepared by harvesting neurons in ice-cold Tris-buffered saline (pH 7.4) containing phosphatase inhibitor, sonicated three times in five-second bursts and placed on ice (two minutes) between each burst of sonication. The lysed cell suspensions were centrifuged at 10,000 rpm (10 minutes) and the supernatant was collected in another tube. Equal amounts of protein from the supernatant were processed for cPLA2 activity assay according to the manufacturer's protocol. Equal protein from the lysates were also used to estimate MCP-1 levels using an MCP-1 ELISA kit.

ERK MAPK [1] = experiment: ERK MAPK phosphorylation in WT and GluN2A-KO mouse neuron cultures (immunoblot); type: cell-based, mice; details: both WT and GluN2A-KO mice cultures, glutamate 50 μM
Excerpt: (§3) Primary cortical neuronal cultures were established from embryos obtained from pregnant Sprague Dawley female rats (16-17 day gestation) as previously described (Podder and Paul, 2009, J Neurochem 110:1095-1106; Poddar and Paul, 2013, J Neurochem 124: 558-570). Primary cortical neuronal cultures were also developed from pregnant wildtype or GluN2A-knockout mice (15-16 day gestation) using similar protocols. The cells were maintained in culture for 12-14 days prior to treatment with homocysteine. L-homocysteine (200 mM stock) was prepared by alkali hydrolysis of L-homocysteine thiolactone hydrochloride followed by neutralization with 2N HCL and maintained in 0.02 mM N-Tris(hydroxymethyl)methyl-2-aminoethanesulfonicd acid (TES) buffer pH 7.4 (Poddar et al., 2001, Circulation 103:2717-2723). For receptor stimulation neurons were treated with freshly prepared 50 μM of L-homocysteine in Hank's balanced salt solution (Podder and Paul, 2009, J Neurochem 110:1095-1106; Poddar and Paul, 2013, J Neurochem 124: 558-570) containing 50 μM of glycine (Lipton et al., 1997, Proc Natl Acad Sci USA 94:5923-5928). In a subset of culture plates, pharmacological inhibitors (NVP-AAM007) were added […] prior to homocysteine addition and maintained during homocysteine treatment. Cells were processed for immunoblotting or Hoechst DNA staining.
as §2, with “(Podder” for “(Poddar”, “(anti-pERK, anti-ERK)” for “(anti-COX2, anti-B-tubulin)”
Embryos obtained from pregnant Sprague Dawley rats (16-17-day gestation) or wild type (WT) and GluN2A KO mice (15-16-day gestation) were used to establish primary cortical neuronal cultures as previously described (Poddar and Paul, 2009, J Neurochem 110:1095-1106; Poddar and Paul, 2013, J Neurochem 124:558-570; Poddar et al., 2017, J Neurochem 142:560-573). Neurons were grown on either (a) 35-mm culture dishes (MatTek Corp., Ashland, Mass.) coated overnight with poly-D-lysine (50 μg/ml) and laminin (10 μg/ml) for Ca^2+ imaging studies, (b) poly-D-lysine-coated 60 mm dishes (Corning BIOCOAT, Corning Inc., Corning, N.Y.) for biochemical studies, or (c) poly-D-lysine-coated 4-well culture slides (Corning BIOCOAT, Corning Inc., Corning, N.Y.) for cell death assay. Neurons were maintained in culture for 12-13 days before experiment. The cells were treated with freshly prepared L-homocysteine (50 μM) in Hank's balanced salt solution containing 50 μM of glycine (Lipton et al., 1997, Proceedings of the National Academy of Sciences of the United States of America 94:5923-5928; Poddar and Paul, 2009, J Neurochem 110:1095-1106; Poddar and Paul, 2013, J Neurochem 124:558-570; Poddar et al., 2017, J Neurochem 142:560-573) for the specified time periods. In a parallel series of experiments, cells were treated with glutamate (50 μM) for the specified time periods. Cells were then processed for live cell imaging, immunoblotting or cell death assay. […]

ERK MAPK [2] = experiment: ERK MAPK phosphorylation in rat cortical neuron cultures (immunoblot); type: cell-based; details: rat neurons, glutamate 50 μM, 5, 30 or 60 minutes
Excerpt: as §3
as §2, with “(Podder” for “(Poddar”, “(anti-pERK, anti-ERK)” for “(anti-COX2, anti-B-tubulin)”
(§4) Embryos obtained from pregnant Sprague Dawley rats (16-17-day gestation) or wild type (WT) and GluN2A KO mice (15-16-day gestation) were used to establish primary cortical neuronal cultures as previously described (Poddar and Paul, 2009, J Neurochem 110:1095-1106; Poddar and Paul, 2013, J Neurochem 124:558-570; Poddar et al., 2017, J Neurochem 142:560-573). Neurons were grown on either (a) 35-mm culture dishes (MatTek Corp., Ashland, Mass.) coated overnight with poly-D-lysine (50 μg/ml) and laminin (10 μg/ml) for Ca^2+ imaging studies, (b) poly-D-lysine-coated 60 mm dishes (Corning BIOCOAT, Corning Inc., Corning, N.Y.) for biochemical studies, or (c) poly-D-lysine-coated 4-well culture slides (Corning BIOCOAT, Corning Inc., Corning, N.Y.) for cell death assay. Neurons were maintained in culture for 12-13 days before experiment. The cells were treated with freshly prepared L-homocysteine (50 μM) in Hank's balanced salt solution containing 50 μM of glycine (Lipton et al., 1997, Proceedings of the National Academy of Sciences of the United States of America 94:5923-5928; Poddar and Paul, 2009, J Neurochem 110:1095-1106; Poddar and Paul, 2013, J Neurochem 124:558-570; Poddar et al., 2017, J Neurochem 142:560-573) for the specified time periods. In a parallel series of experiments, cells were treated with glutamate (50 μM) for the specified time periods. Cells were then processed for live cell imaging, immunoblotting or cell death assay. In some experiments EGTA, DL-AP5, NVP-AAM077, Ro 25-6981 or PD98059 was added 15 minutes prior to L-homocysteine or glutamate treatment.
Rat and mice neuron cultures were harvested in SDS sample buffer (Laemmli, 1970, Nature 227:680-685). […]

[Ca^2+]i [3] = Intracellular Ca^2+ by Fura2 imaging, rat neuronal cultures; type: cell-based; details: rat neurons
Experimental: as §4
[Ca^2+]i in neurons was determined using the fluorescent indicator, Fura2-AM. Briefly, neurons were loaded with Fura2 (10 μM) in phenol red free Hank's balanced salt solution for 30 minutes at 37° C. followed by post-incubation for 20 minutes (Paul, S. and Connor, J. A., 2010, J Neurochem 114:1107-1118). Time lapse live cell imaging was performed following stimulation using a Nikon Ti Eclipse inverted microscope equipped with Tokai Hit stage top incubator maintained at 37° C. and infused with 95:5% air:CO2 mixture. Fields of 5-8 cells were imaged using a 40× oil immersion objective (Nikon). Fluorescence excitations (340 and 380 nm) were provided with Sutter LB-LS/30 Lambda xenon arc lamp and fluorescence emissions (510 nm) were captured using a CCD camera (Teledyne Photometries, Tucson, Ariz.). NIS Elements AR software was used for data acquisition and analysis. Ratiometric data (340/380 nm) from regions of interest were corrected for background and converted into estimates of [Ca^2+]i. as described previously (Paul, S. and Connor, J. A., 2010, J Neurochem 114:1107-1118) using the equation developed earlier (Grynkiewicz et al., 1985, J Biol Chem 260:3440-3450). Maximum and minimum fluorescence ratios were determined from Fura2 loaded cells treated with ionomycin (5 μM) in calcium containing medium (2 mM) or in calcium free media with EGTA (0.5 mM).

[Ca^2+]i [4] = Intracellular Ca^2+ by Fura2 imaging, WT and GluN2A KO mouse neuronal cultures; type: cell-based, mice; details: neurons from both WT and GluN2A-KO mice, glutamate 50 μM
Experimental: as §4
[Ca^2+]i in neurons was determined using the fluorescent indicator, Fura2-AM. […] Fluorescence excitations (340 and 380 nm) were provided with Sutter LB-LS/30 Lambda xenon arc lamp and fluorescence emissions (510 nm) were captured using a CCD camera (Teledyne Photometries, Tucson, Ariz.). […] Maximum and minimum fluorescence ratios were determined from Fura2 loaded cells treated with ionomycin (5 μM) in calcium containing medium (2 mM) or in calcium free media with EGTA (0.5 mM).

[5] = system: rat cortical neuronal cultures; experiment: Neuronal cell death by Hoechst DNA staining, rat cortical neuron cultures; type: cell-based; details: rat neurons, with NVP-AAM077 30 nM or PD98059 15 μM
Experimental: (§5) Neurons were subjected to staining with Hoechst 33342 dye for 15 minutes, washed extensively with PBS, and analyzed using fluorescent microscopy to assess nuclear damage. Imaging was performed with a Zeiss Axiovert 200M fluorescence microscope with attached AxioCam CCD camera using 20× objective lens (Carl Zeiss, Thomwood, N.Y.). To quantitatively assess the percentage of pyknotic nuclei a total of 1000 cells were counted for each set of experiments. Mean±SEM (n=3) were used for statistical comparison using ANOVA (Bonferroni's multiple comparison test). Differences were considered significant when p<0.05.
(§6) […] Glutamate treated cells were then maintained in their original medium for another 17 hours. For some experiments, neurons were treated with L-homocysteine or glutamate in the presence of NVP-AAM077 or PD98059. The neurons were then fixed and stained with Hoechst 33342 dye as previously described (Poddar and Paul, 2009, J Neurochem 110:1095-1106). Percentage of pyknotic nuclei was quantitatively assessed by fluorescent microscopy to determine the extent of neuronal death.

[6] = system: neuron cultures from WT and GluN2A-KO mice; experiment: Neuronal cell death by Hoechst DNA staining, WT and GluN2A-KO mouse neuron cultures; type: cell-based; details: PD98059 15 μM
Experimental: as §5, §6

Row | SMILES | effect on homocysteine-induced PGE2 release (PGE2) | effect on homocysteine-induced increase in COX2 protein level (COX2) | effect on homocysteine-mediated increase in cPLA2 activity (cPLA2) | further results
1 | CCCCCCCCCCCCCC(=O)O[C@H]1CC[C@H](NC(=O)[C@H](OC)[C@H](O)[C@@H](O)[C@H](O)/C=C/C(C)C)C(=O)N(C)C1 [Bengamide B] | significant decrease in PGE2 level | attenuates homocysteine-induced increase in COX2 protein level | – | –
2 | C[C@]12N[C@H](Cc3ccccc31)c1ccccc12 [MK801] | significantly reduced | blocks homocysteine induced COX2 protein expression | is blocked | –
3 | N[C@@H](CCC(=O)O)C(=O)O [glutamate] | – | – | – | ERK MAPK phosphorylation (ERK MAPK [1]): rapid but transient increase in ERK MAPK phosphorylation; ERK MAPK phosphorylation (ERK MAPK [2]): rapid but transient increase in ERK MAPK phosphorylation; increase in [Ca^2+]i ([Ca^2+]i [3]; glutamate 50 μM, within 2.5 minutes): approximately 21 fold; Fura2 fluorescence ratio and [Ca^2+]i ([Ca^2+]i [4]): rapid increase in Fura2 fluorescence ratio and [Ca^2+]i
4 | C[S+]([O-])c1ccc(-c2nc(-c3ccncc3)c(-c3ccc(F)cc3)[nH]2)cc1 (stereo not drawn) [SB203580] | significant reduction | significant reduction | significant reduction | –
5 | CS(=O)(=O)c1ccc(-c2noc(C(F)(F)F)c2-c2ccccc2)cc1 [CAY10404] | significantly reduced | – | – | –
6 | O=C(O)CN(CCOCCOCCN(CC(=O)O)CC(=O)O)CC(=O)O [EGTA] | – | – | – | effect on homocysteine-induced increase in Fura2 fluorescence ratio and [Ca^2+]i ([Ca^2+]i [3]; somata and processes, L-homocysteine 50 μM 60 minutes, with EGTA 2 mM, DL-AP5 200 μM, NVP-AAM077 30 nM or Ro 25-6981 1 μM): are blocked
7 | COc1cccc(-c2cc(=O)c3ccccc3o2)c1N [PD98059] | decreases significantly | significantly reduced | significantly attenuates homocysteine-mediated increase in cPLA2 activity | effect on homocysteine-induced neuronal death ([5]; L-homocysteine 50 μM 18 hours): attenuates homocysteine-induced neurotoxicity; effect on glutamate induced neuronal cell death ([5]; glutamate 50 μM one hour then 17 hours in original medium): remain unaffected; effect on homocysteine-induced neurotoxicity ([6]; neurons from WT mice, L-Hcy 50 μM 18 hours): significantly reduced; effect on glutamate-induced neurotoxicity ([6]; neurons from either WT or GluN2A KO mice, glutamate 50 μM one hour then 17 hours): fails to reduce glutamate-induced neurotoxicity
